Data set [1] concerns the target T1, Amine oxidase [flavin-containing] B (Bos taurus, UniProt P56560).
T1 sequence (P56560 whole entry): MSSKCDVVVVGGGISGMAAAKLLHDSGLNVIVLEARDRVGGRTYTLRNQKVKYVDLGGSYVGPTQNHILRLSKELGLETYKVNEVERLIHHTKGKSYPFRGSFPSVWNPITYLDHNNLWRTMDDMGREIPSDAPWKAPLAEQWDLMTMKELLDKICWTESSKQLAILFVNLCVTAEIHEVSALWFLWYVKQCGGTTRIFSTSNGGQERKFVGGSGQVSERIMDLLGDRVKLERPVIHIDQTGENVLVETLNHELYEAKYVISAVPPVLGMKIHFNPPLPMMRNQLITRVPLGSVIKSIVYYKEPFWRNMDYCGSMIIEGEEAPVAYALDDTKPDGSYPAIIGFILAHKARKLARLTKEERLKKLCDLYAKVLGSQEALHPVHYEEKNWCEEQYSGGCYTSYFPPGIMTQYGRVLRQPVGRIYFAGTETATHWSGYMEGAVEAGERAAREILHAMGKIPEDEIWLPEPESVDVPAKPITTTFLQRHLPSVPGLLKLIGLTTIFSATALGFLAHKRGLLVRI
Put plainly: Ratio of Kcat and KM against monoamine oxidase B (MAO-B) from beef liver was calculated. Particulars: cattle.

Data set [2] has as its target T1, Amine oxidase [flavin-containing] B. Put plainly: Catalytic constant was measured against monoamine oxidase B (MAO-B) from beef liver. Particulars: cattle.

For `O=C([O-])C(=O)O.O=[N+]([O-])c1ccc(OC2=CC=[N+](C3CC3)CC2)cc1`, the Ratio in data set [1] is on record as 150.

In the case of `CN1CC=C(CCc2ccccc2)CC1`, the Ratio in data set [1] is reported as 1130.

On to `C[C@@H]1NC(=O)[C@H](NC(=O)[C@@H](N)Cc2ccc(O)cc2)C(C)(C)SSC(C)(C)[C@@H](C(O)O)NC(=O)[C@H](Cc2ccccc2)NC1=O`, for which the Ratio in data set [1] is listed as 19.

On to `CN1CC=C(c2ccc([N+](=O)[O-])cc2)CC1`, for which, in data set [1], the Ratio is on record as 16.

As to `CN1CC=C(OC(=O)N(C)C)CC1`, the Ratio in data set [1] is 57.

Regarding `CN1CC=C(OC(=O)N(C)c2ccccc2)CC1`, the Ratio in data set [1] is listed as 67.

On to `CN1CC=C(C(C)(C)C)CC1`, for which, in data set [1], the Ratio was 92.

Turning to `C1=C(c2ccccc2)CCNC1`, the Ratio in data set [1] is 319.

Turning to `C1=C(Oc2cccs2)CC[N+](C2CC2)=C1`, in data set [1], the Ratio was 1900.

Turning to `C#CC1=CCN(C)CC1`, the Ratio in data set [1] is recorded as 790.

With `Clc1ccc(OC2=CC=[N+](C3CC3)CC2)cc1`, the Ratio in data set [1] is on record as 136.

For `C1=C(Oc2ccccc2)CC[N+](C2CC2)=C1`, in data set [1], the Ratio is recorded as 1650.

For `CCCN1CC=C(c2ccccc2)CC1`, the Ratio in data set [1] is 4.

As for `CN1CC=C(C2CCCCC2)CC1`, the Ratio in data set [1] is listed as 688.

Take `CN1CC=C(C2CC2)CC1`: the Ratio in data set [1] is on record as 974.

For `CCOC(=O)C1=CCN(C)CC1`, in data set [1], the Ratio is listed as 433.

`C1=C(Cc2ccccc2)CC[N+](C2CC2)=C1`: the Ratio in data set [1] is on record as 1538.

For `CN1CC=C(Cn2cccc2)CC1`, the Ratio in data set [1] is listed as 347.

`Cc1ccccc1C1=CC=[N+](C2CC2)CC1`: in data set [1], the Ratio is reported as 630.

Consider `CN1CC=C(Cc2ccccc2)CC1`, for which the Ratio in data set [1] is given as 3580.

On to `CN1CC=C(c2ccc(N)cc2)CC1`, for which, in data set [1], the Ratio is given as 54.

`CN1CC=C(/C=C\c2ccccc2)CC1`: the Ratio in data set [1] was 912.

For the molecule `CN1CC=C(c2cccs2)CC1`, the Ratio in data set [1] is given as 55.

Turning to `C=CC1=CCN(C)CC1`, the Ratio in data set [1] is recorded as 2370.

`CN1CC=C(c2ccccc2)CC1` came in with a k cat in data set [2] of 3.4 s⁻¹.

Regarding `Clc1ccc(C2=CCNCC2)cc1`, the Ratio in data set [1] is 382.

On to `CN1CC=C(Oc2ccccc2)CC1`, for which, in data set [1], the Ratio is 4151.

On to `Cn1cccc1C1=CC=[N+](C2CC2)CC1`, for which the Ratio in data set [1] is reported as 413.
